The values below come from patent US12351580B2, “NLRP3 modulators” (Innate Tumor Immunity, Inc., priority 2017, dated 2025).

One assay concerns the target T1, hNLRP3 (Homo sapiens, UniProt Q96P20).
T1 construct: THP-1 cells were purchased from the American Type Culture Collection; host or cells: THP-1 cells, PMA-differentiated
The assay is described as follows: Measurement of IL-1β production in PMA-differentiated THP-1 cells (hNLRP3 agonist; ELISA, alternative and hTRF procedures). The assay is classed as cell-based. The protocol:
Measurement of IL-1β production in PMA-differentiated THP-1 cells THP-1 cells were purchased from the American Type Culture Collection and sub-cultured according to instructions from the supplier. Prior to experiments, cells were cultured in RPMI 1640 containing 10% heat inactivated FBS, penicillin (100 units/ml) and streptomycin (100 μg/ml), and maintained in log phase prior to experimental setup. Prior to the experiment THP-1 were treated with PMA (Phorbol 12-myristate 13-acetate) ([…]) for 24 hours. The day of the experiment the media was removed and attaching cells were treated with trypsin for 2 minutes, cells were then collected, washed with PBS (phosphate buffer saline), spin down, resuspended in 2% heat inactivated FBS with RPMI at a concentration of 1×10^6 cells/ml, and 100 μl was plated in a 96 well plate. Compounds were dissolved in dimethyl sulfoxide (DMSO) and added to the culture medium to achieve desired concentration (e.g. 100, 30, 10, 3, 1, 0.3 or 0.1 μM). Cells were incubated with compounds for 4 hours. Cell free supernatant was collected and the production of […] was evaluated by ELISA. A vehicle only control was run concurrently with each experiment. Final DMSO concentration was 1%.
Measurement of IL-1β Production in PMA-Differentiated THP-1 Cells (Alternative Procedure)
THP-1 cells were purchased from the American Type Culture Collection and sub-cultured according to instructions from the supplier. Prior to experiments, cells were cultured in RPMI 1640 containing 10% heat inactivated FBS, penicillin (100 units/ml), streptomycin (100 μg/ml), HEPES (10 mM) and sodium pyruvate (1 mM) and maintained in log phase prior to experimental setup. Prior to the experiment, THP-1 cells were treated with PMA (Phorbol 12-myristate 13-acetate) (20 μg/ml) overnight. The day of the experiment, the media was removed and attached cells were treated with trypsin for 2 minutes, cells were then collected, washed with PBS (phosphate buffer saline), pelleted by centrifugation and resuspended in 2% heat inactivated FBS with RPMI at a concentration of 50,000 cells/well in a 384 well plate. Cell free supernatant was collected and the production of IL-1β was evaluated by ELISA. Compounds were dissolved in dimethyl sulfoxide (DMSO) and added to the culture medium to achieve desired concentration (e.g. 100, 30, 10, 3, 1, 0.3 or 0.1 μM). Cells were incubated with compounds for 2 hours. A vehicle only control was run concurrently with each experiment. Final DMSO concentration was 1%.
Measurement of IL-1β Production—hTRF Protocol (Second Alternative Procedure)
Serial dilutions of compounds in DMSO were added to low volume 384 well plates at 100 nl/well using an ECHO 550 acoustic dispenser (Labcyte) to achieve final starting concentration of 10 μM in assay.
THP-1 cells in RPMI (Gibco, 11875) media with 10% FBS at a density of 1×10^6 cell/ml in a T175 flask were treated with a final concentration of phorbol 12-myristate 13-acetate (PMA) (Sigma, P1585) of 50 ng/ml overnight at 37° C. at 5% CO2 for differentiation. Cells were harvested the next day after rinsing well with dPBS using 0.5% trypsin. A cell solution was prepared of 1×10^6 cells/ml for 50,000 cells in 50 μl/well in RPMI media with 2% FBS. Cells were plated using a multichannel pipette onto the compound dilutions in Greiner, 384 well, black clear bottom tissue culture treated plates (781090). The plates were incubated in 37° C. incubator at 5% CO2 for 2 hours.
After the 2 hour incubation, the cell plates were spun in the centrifuge for 5 minutes at 1200 rpm. Using the Felix (CyBio), 8 μl of the supernatant was transferred to 384 well, low volume, white proxy plates. (Perkin Elmer, 6008230). A human IL1beta hTRF kit was used to analyze the supernatant (CISBIO, 62HIL1BPEG). The kit instructions were followed for preparing the IL1Beta standard curve and then the antibodies from the kit were diluted 1:40 rather than 1:20 as kit instructed.

In another assay the target is T2, TLR7 (Homo sapiens, UniProt Q9NYK1).
T2 construct: host or cells: HEK-Blue cells (human HEK) co-expressing TLR7 and an NF-kB/AP1-inducible SEAP reporter
T2 sequence (Q9NYK1 27-1049): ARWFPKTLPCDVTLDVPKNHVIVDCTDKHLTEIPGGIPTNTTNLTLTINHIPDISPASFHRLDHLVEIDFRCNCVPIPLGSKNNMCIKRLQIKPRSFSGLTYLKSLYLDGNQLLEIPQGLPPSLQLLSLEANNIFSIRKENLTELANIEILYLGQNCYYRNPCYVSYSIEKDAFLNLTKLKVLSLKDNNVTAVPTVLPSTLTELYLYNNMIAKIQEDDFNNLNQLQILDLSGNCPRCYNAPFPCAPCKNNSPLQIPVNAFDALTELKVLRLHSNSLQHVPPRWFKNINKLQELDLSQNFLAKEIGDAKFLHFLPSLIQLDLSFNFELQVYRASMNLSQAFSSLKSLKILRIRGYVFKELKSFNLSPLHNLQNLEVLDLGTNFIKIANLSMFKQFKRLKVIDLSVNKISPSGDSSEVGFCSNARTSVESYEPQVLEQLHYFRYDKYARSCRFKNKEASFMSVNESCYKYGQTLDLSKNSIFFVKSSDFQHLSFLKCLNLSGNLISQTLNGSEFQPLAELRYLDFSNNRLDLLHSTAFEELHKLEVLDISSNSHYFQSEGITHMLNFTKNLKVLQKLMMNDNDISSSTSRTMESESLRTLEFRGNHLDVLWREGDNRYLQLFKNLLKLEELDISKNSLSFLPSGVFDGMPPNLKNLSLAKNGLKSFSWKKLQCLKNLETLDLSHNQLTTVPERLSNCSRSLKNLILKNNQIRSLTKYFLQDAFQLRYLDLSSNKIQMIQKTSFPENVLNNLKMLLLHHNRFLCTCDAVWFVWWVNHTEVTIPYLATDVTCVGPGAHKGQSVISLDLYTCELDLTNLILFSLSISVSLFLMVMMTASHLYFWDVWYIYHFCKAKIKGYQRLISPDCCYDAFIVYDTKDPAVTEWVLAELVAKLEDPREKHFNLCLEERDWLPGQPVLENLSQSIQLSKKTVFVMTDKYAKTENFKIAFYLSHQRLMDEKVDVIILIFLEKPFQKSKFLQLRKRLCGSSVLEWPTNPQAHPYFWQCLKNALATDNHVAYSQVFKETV
The assay is described as follows: In vitro human TLR7 binding reporter assay (HEK-Blue, NF-kB/AP1-inducible SEAP). The note with it: activity range symbols. The assay is classed as cell-based. The protocol: In Vitro Human TLR7 and TLR8 Binding Reporter Assays
Logarithmically-growing human HEK-Blue cells co-expressing a TLR7 or TLR8 gene and a NF-kB/AP1-inducible SEAP (secreted embryonic alkaline phosphatase; Invivogen, San Diego, CA) reporter gene are added to individual wells of a 384-well plate (15,000 cells per 20 μL per well) and maintained for 24 h at 37° C., 5% CO2. Test compounds or DMSO are distributed to separate wells the next day using acoustic liquid handling technology (100 nL per well) and cells are subsequently incubated for 18 h at 37° C., 5% CO2. Cellular SEAP production is measured using an Envision plate reader instrument thirty minutes after adding freshly-made Quanti-Blue reagent (prepared by following manufacturer instructions; Invivogen, San Diego, CA) to the HEK-Blue TLR Nf-kB-SEAP cell reactions. All EC50 values (half-maximal effective concentration) are determined using proprietary data analysis software.

T1 sequence (Q96P20 whole entry): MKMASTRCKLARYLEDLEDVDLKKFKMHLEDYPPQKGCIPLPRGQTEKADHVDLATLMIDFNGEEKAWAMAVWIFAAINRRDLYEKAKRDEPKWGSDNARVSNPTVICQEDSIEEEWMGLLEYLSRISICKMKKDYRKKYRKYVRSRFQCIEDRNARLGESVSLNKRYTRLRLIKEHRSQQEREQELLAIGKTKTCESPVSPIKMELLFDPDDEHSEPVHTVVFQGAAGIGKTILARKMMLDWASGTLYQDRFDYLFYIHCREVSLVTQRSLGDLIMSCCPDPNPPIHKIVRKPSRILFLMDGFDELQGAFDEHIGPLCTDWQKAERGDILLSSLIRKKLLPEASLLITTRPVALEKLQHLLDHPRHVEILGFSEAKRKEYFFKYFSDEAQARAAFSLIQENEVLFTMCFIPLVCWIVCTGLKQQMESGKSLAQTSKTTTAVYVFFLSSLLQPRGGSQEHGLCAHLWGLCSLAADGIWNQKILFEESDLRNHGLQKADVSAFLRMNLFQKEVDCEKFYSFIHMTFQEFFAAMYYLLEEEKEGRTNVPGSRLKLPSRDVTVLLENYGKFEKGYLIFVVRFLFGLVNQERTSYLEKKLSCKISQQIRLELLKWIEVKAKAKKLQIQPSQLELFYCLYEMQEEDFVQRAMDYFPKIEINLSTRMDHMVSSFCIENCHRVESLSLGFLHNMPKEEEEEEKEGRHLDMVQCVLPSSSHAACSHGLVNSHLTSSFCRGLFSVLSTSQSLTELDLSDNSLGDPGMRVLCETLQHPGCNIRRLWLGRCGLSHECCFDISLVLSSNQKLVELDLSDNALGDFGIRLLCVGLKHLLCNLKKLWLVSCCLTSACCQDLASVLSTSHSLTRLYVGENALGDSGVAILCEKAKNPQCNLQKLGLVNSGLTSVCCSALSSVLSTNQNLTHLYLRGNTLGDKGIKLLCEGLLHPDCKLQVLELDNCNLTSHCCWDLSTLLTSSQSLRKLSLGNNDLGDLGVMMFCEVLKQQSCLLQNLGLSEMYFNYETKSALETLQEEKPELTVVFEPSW

At hNLRP3, `Nc1nc2cc(-c3cc[nH]n3)ccc2c2[nH]c(CNC(=O)C3CC3)nc12` [Compound 105] gave an EC50 of 0.69 µM.

On to `CC(C)C(=O)NCc1nc2c(N)nc3cc(-c4cc[nH]n4)ccc3c2[nH]1` [Compound 107], for which a half-maximal response on hNLRP3 (EC50) required 0.64 µM.

Regarding `CC(=O)NCc1nc2c(N)nc3cc(-c4cc[nH]n4)ccc3c2[nH]1` [Compound 113, N-((4-Amino-7-(1H-pyrazol-3-yl)-1H-imidazo[4,5-c]quinolin-2-yl)methyl)acetamide], on hNLRP3, the EC50 came out at 0.56 µM.

On to `CS(=O)(=O)NCc1nc2c(N)nc3cc(-c4cc[nH]n4)ccc3c2[nH]1` [Compound 116], for which a half-maximal effect at hNLRP3 (EC50) was put at 1.16 µM.

`CCN(Cc1nc2c(N)nc3cc(-c4cc[nH]n4)ccc3c2[nH]1)C(=O)c1ccccc1` [Compound 126] displayed an EC50 at hNLRP3 of 2.1 µM.

Compound `CCN(Cc1nc2c(N)nc3cc(-c4cc[nH]n4)ccc3c2[nH]1)C(=O)CO` [Compound 133] displayed an EC50 at hNLRP3 of 3.5 µM.

`CCN(Cc1nc2c(N)nc3cc(-n4nccn4)ccc3c2[nH]1)C(=O)OC(C)(C)C` [Compound 135]: it took 4.6 µM to reach a half-maximal effect at hNLRP3 (EC50).

Compound `Nc1nc2cc(-c3cc[nH]n3)ccc2c2[nH]c(CN3CC(c4ccccc4)CC3=O)nc12` (stereo not drawn) [Compound 137] showed an EC50 on hNLRP3 of 5.4 µM.

On to `CCN(C(C)=O)C(C)c1nc2c(N)nc3cc(Br)ccc3c2[nH]1` (stereo not drawn) [Compound 182, N-[1-(4-amino-7-bromo-1H-imidazo[4,5-c]quinolin-2-yl)ethyl]-N-ethylacetamide], for which the EC50 on TLR7 is more than 100 µM; on hNLRP3, 5.9 µM.

At hNLRP3, `COc1ccc(-c2ccc3c(c2)nc(N)c2nc(CN4CCCC4=O)[nH]c23)cc1` [Compound 292, 1-[[4-amino-7-(4-methoxyphenyl)-1H-imidazo[4,5-c]quinolin-2-yl]methyl]pyrrolidin-2-one] yielded an EC50 of 4.48 µM.

`COc1ccc(-c2ccc3c(c2)nc(N)c2nc(CN4CCCC4=O)[nH]c23)cn1` [Compound 304, 1-[[4-amino-7-(6-methoxypyridin-3-yl)-1H-imidazo[4,5-c]quinolin-2-yl]methyl]pyrrolidin-2-one] returned a 50% effective concentration (EC50) at hNLRP3 of 36.4 µM.

In turn, `Nc1nc2cc(-c3cccnc3F)ccc2c2[nH]c(CN3CCCC3=O)nc12` [Compound 307, 1-[[4-amino-7-(2-fluoropyridin-3-yl)-1H-imidazo[4,5-c]quinolin-2-yl]methyl]pyrrolidin-2-one] returned an EC50 on hNLRP3 of 12.3 µM.

At hNLRP3, `Nc1nc2cc(-c3ccsc3)ccc2c2[nH]c(CN3CCCC3=O)nc12` [Compound 308, 1-[(4-amino-7-thiophen-3-yl-1H-imidazo[4,5-c]quinolin-2-yl)methyl]pyrrolidin-2-one] registered an EC50 of 1.06 µM.

Compound `Nc1nc2ccccc2c2c1nc(CN1CCCC1=O)n2CCCC(=O)N1CCSCC1` [Compound 345] had a 50% effective concentration (EC50) at hNLRP3 of 64 µM.

`CN1CCN(Cc2nc3c(N)nc4cc(-c5cc[nH]n5)ccc4c3[nH]2)C(=O)C1` [Compound 350]: the response on hNLRP3 was half-maximal at 10 µM (EC50).

Compound `Nc1nc2cc(-c3cc[nH]n3)ccc2c2[nH]c(CN3CCOCC3=O)nc12` [Compound 351] registered an EC50 on hNLRP3 of 2.17 µM.

`Nc1nc2cc(-c3cc[nH]n3)ccc2c2[nH]c(CN3CCCCC3=O)nc12` [Compound 352] displayed an EC50 on hNLRP3 of 2.23 µM.

Take `CC(C)NCc1nc2c(N)nc3cc(-c4cc[nH]n4)ccc3c2[nH]1` [Compound 421]: the EC50 at hNLRP3 worked out at 0.24 µM.

Consider `CCN(Cc1nc2c(N)nc3cc(-c4cccs4)ccc3c2[nH]1)C(=O)OC(C)(C)C` [Compound 424], for which the EC50 on TLR7 was more than 100 µM; on hNLRP3, 0.79 µM.

`CCN(Cc1nc2c(N)nc3cc(-c4cccs4)ccc3c2[nH]1)C(C)=O` [Compound 425]: the results for the concentration for a half-maximal effect (EC50) at TLR7 and on hNLRP3 were more than 100 µM and 0.44 µM, respectively.

Regarding `Nc1nc2cc(-c3cccnc3)ccc2c2[nH]c(CN3CCCCC3=O)nc12` [Compound 426], the EC50 is more than 100 µM on TLR7 and 4.3 µM at hNLRP3.

With `Nc1nc2cc(Br)ccc2c2[nH]c(CN3CCCCC3=O)nc12` [Compound 428], the EC50 is more than 100 µM at TLR7 and 5.1 µM at hNLRP3.

For `Nc1nc2cc(-n3cccn3)ccc2c2[nH]c(CN3CCOC3=O)nc12` [Compound 429], the EC50 is more than 100 µM on TLR7 and 5.8 µM at hNLRP3.

Compound `CN1CCN(Cc2nc3c(N)nc4cc(-c5cc[nH]n5)ccc4c3[nH]2)C(=O)C1` [Compound 432] registered an EC50 on hNLRP3 of approximately 10 µM.

With `CC(C)(C)OC(=O)N1CCN(Cc2nc3c(N)nc4cc(-c5cccnc5)ccc4c3[nH]2)C(=O)C1` [Compound 433], at hNLRP3, the EC50 was 11.5 µM.

Consider `CCCn1c(CN(CC)C(C)=O)nc2c(N)nc3cc(Br)ccc3c21` [Compound 435], for which the EC50 is more than 100 µM at TLR7 and 19.3 µM on hNLRP3.
